The results in this text go back to patent publication US20040053407A1, “Method for in vitro culture of ovarian follicles” (priority 2000, published 2004).

SMILES strings stand for the structures.

The test system of the data set is secondary follicles (folliculogenesis). Nature of the data set: In vitro follicle culture testing the influence of taxol on folliculogenesis and oocyte maturation. To be noted: secondary follicles scored after 13 days. The class given is cell-based, mouse. The source says:
Ovarian tissue is isolated from 12 to 14 days old F1 hybrids C57Bl/j6×CBAca mice and kept in a culture dish comprising Leibovitz's L15 medium with GlutaMAX I™ (Gibco BRL 31415-029) with 10% HIA FBS (Heat Inactivated Foetal Bovine Serum) and 0.1% penicillin-streptomycin-mix (Gibco BRL 3032908). The ovaries have to be freed of oviduct and fat.
Not all follicles in suspension from example 1 are suitable for follicle culture. To make sure that all follicles grow at approximately the same rate, the selected follicles should have a similar diameter. In this specific case, a diameter of between 100 and 130 μm is suitable and points to development of the follicle up to the early preantral (secondary) stage. […] FIG. 2b. Said follicles further comprise theca-interstitial cells 17, a basal membrane 19 and a zona pellucida 21. Follicles are observed under a stereomicroscope and measured under an inverted microscope. Suitable follicles are picked up using suitably arranged pasteur pipettes and transferred to a cryovial (for stocking, see example 3) or to a culture plate (for follicle culture, see example 4).
When starting from secondary follicles, one can start immediately with culture using the second medium. This medium will promote adhesion to the culture recipient surface. Culture medium is refreshed every four days. On day 12, the culture medium is refreshed using the third medium in stead of the second. This medium will cause the release of a mucified oocyte-cumulus complex from the follicle overnight, while the oocyte finalises maturation.
Cultures are done in 75 μl of culture medium. When refreshing medium, 30 μl of used medium is removed and 30 μl of fresh medium is added. Schematically, both procedures can be summarised as follows:
The same method is used as in example 4. Secondary follicles are used. […] All media used in the culture steps are constituted as follows:
The culture medium is refreshed every 4 days by removing 30 μl and addition of 30 μl of fresh medium.
After 13 days, follicles are scored on survival, mucification, presence of polar body (PB), and oocyte diameter.

[1] abbreviates: Taxol 0.01 nM in all media (plates 3+4).
The mark [2] stands for this setting: Taxol 0.1 nM in all media (plates 5+6).
Setting [3] is: Taxol 1 nM in all media (plates 7+8).
The mark [4] stands for this setting: Taxol 10 nM in all media (plate 9).

As for `CC(=O)O[C@H]1C(=O)[C@@]2(C)[C@H]([C@H](OC(=O)c3ccccc3)[C@]3(O)C[C@H](OC(=O)[C@H](O)[C@@H](NC(=O)c4ccccc4)c4ccccc4)C(C)=C1C3(C)C)[C@]1(OC(C)=O)CO[C@@H]1C[C@@H]2O` [Taxol], the Mucification mean is recorded as 100% under setting [1], 96% under setting [2], 96% under setting [3] and 0 under setting [4]. Besides, the “PB (presence of polar body) mean” value is, setting by setting: under setting [1], 75%; under setting [2], 75%; under setting [3], 55%; under setting [4], 0. For the same compound, the Survival mean by setting is: under setting [1], 87%; under setting [2], 100%; under setting [3], 92%; under setting [4], 0%.
